# Assay results published in patent US20180125835A1, “Dosage and Use of an A2A Antagonist” (H. Lundbeck A/S, priority 2014, published 2018).
# How the values were obtained:
# A2A receptor [1] = molecular target: A2A receptor (Canis lupus familiaris, UniProt P11617); experiment: Adenosine receptor binding affinity, dog A2A
# A1 receptor = molecular target: T1, A1 receptor (Rattus norvegicus, UniProt P25099); experiment: Adenosine receptor binding affinity, rat A1
# T1 sequence (P25099 1-326): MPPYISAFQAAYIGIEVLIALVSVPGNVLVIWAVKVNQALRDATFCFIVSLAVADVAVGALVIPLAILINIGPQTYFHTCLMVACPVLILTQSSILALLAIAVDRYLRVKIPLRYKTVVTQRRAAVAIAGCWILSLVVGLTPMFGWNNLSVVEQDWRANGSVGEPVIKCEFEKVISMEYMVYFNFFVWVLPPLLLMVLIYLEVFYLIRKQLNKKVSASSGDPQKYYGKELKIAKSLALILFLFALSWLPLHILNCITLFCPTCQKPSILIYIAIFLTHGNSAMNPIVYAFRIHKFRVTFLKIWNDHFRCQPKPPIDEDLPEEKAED
# A2A receptor [2] = molecular target: A2A receptor (Mus musculus, UniProt Q60613); experiment: Adenosine receptor binding affinity, mouse A2A
# Chain of A2A receptor (Mus musculus, UniProt Q60613) (Q60613 whole entry): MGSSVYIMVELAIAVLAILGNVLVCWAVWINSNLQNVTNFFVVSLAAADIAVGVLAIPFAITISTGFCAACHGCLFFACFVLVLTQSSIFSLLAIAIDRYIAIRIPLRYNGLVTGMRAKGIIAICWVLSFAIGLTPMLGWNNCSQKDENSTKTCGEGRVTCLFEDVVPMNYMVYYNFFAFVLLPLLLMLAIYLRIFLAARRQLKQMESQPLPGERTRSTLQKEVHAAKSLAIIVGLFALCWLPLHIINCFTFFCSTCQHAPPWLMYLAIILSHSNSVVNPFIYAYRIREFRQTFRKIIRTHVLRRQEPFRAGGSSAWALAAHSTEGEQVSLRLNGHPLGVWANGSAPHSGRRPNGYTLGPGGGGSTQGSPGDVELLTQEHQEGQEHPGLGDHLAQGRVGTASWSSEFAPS
# [3] = Plasma exposure in Long Evans rats; type: in vivo; settings: rat
# Protocol: A minimum of 400 μL of whole blood was collected via saphenous bleed at 10 min, 20 min, 60 min, and 120 min post drug administration, i.e. at time points that coincided with the activity study (and phase 2: 5-choice experiments). Blood was collected and transferred into K3 EDTA tubes. The tubes were allowed to sit at room temperature for approximately 2 minutes and placed on wet ice until centrifugation. Blood was spun in the centrifuge with speed of 3,500 rpm for 15 minutes at 4° C. Plasma was separated and placed into a labeled 0.75 ml Matrix tube and capped. Plasma tubes were placed into a Matrix rack and stored in a −80° C. freezer. At the final time point (120 minutes post drug administration) following blood collection by cardiac puncture, the brain tissue was extracted and hemisected along the midline. One hemisphere, without the cerebellum, was placed in the 15 ml pre-weighed brain tube while the other portion was disposed. The brain tubes were weighed, frozen on dry ice, and stored at −80 C. Brain tissue and plasma samples were shipped on dry ice to Sponsor. Blood and brain levels of compound 504 were to be conducted by the Sponsor.
# Long Evans rats = experiment: Locomotor activity in habituated rats; type: in vivo, rat
# Description: Sixteen (16) male Long Evans rats were habituated to Med Associates test activity chambers (17″ W×17″ L×12″ H) over three, 90-minute sessions. […] Total distance travelled and rearing counts for the total session were the primary measure.
# [4] = Safety and tolerability study, adverse events (Parts A, B, C)
# Protocol: The study was conducted in three parts: Parts A, B, and C.
# Parts A and B were single-dose escalations to determine the safety and tolerability in young healthy men, and in elderly men and women, respectively. Three doses (Cohorts A1 to A3) were tested in healthy young men: 1 mg (N=6), 5 mg (N=6), and 10 mg (N=5); placebo (N=8, total of the three cohorts). […] Two doses (Cohorts B1 and B2) were tested in healthy elderly men and women: 5 mg (N=9 men/4 women), 10 mg (N=4 men/4 women); placebo (N=6 men/4 women, total of the three cohorts). […] A washout period of at least 7 days separated each dose administration.
# [5] = Part A, healthy young men, 1, 5 and 10 mg dose groups
# [6] = Part B, healthy elderly, 5 and 10 mg dose groups
# [7] = Part C, 5 mg on three occasions
# Chain of A2A receptor (Canis lupus familiaris, UniProt P11617) (P11617 whole entry): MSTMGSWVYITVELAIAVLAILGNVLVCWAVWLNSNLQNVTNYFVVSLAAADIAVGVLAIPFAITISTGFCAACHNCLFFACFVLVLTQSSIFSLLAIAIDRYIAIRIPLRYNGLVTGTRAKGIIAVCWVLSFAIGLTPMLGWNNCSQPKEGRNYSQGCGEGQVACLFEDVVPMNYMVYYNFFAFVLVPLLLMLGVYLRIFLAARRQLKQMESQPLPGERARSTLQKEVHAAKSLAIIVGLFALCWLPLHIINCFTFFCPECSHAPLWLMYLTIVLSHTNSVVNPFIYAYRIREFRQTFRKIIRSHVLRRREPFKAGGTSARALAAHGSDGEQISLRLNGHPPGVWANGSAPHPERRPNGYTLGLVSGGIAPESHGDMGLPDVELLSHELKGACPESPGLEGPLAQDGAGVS
structure (smiles),measurement,setting,value
Cc1ccc(C(=O)Nc2nc(-c3ccco3)c(C(=O)C3CCOCC3)s2)cn1 [Compound 504],Ki,A2A receptor [1],0.283 ± 0.0269 nM
same,Ki,A1 receptor,50.7 ± 3.18 nM
same,Ki,A2A receptor [2],0.322 ± 0.0114 nM
same,plasma concentrations,[3]; oral 0.01-0.1 mg/kg,100 to 450 ng/mL
same,plasma levels,"[3]; oral 0.03-0.1 mg/kg, 60 min and 90 min sampling",150 to 400 ng/mL
same,locomotor activity (distance travelled and rearing counts),"Long Evans rats; 0.01-1 mg/kg oral, 90 min test session",dose related increase
same,timecourse of locomotor activity changes,"Long Evans rats; 90 min session, all doses",peaked during the first 10 min timebin
same,dose at which magnitude of locomotor effect plateaued,"Long Evans rats; oral, 90 min session",0.06 to 0.1 mg/kg
same,effect size on locomotor activity compared with amphetamine (1 mg/kg IP),Long Evans rats; same study,significantly less
same,insomnia,"[4]; Part A, 1 mg group",not reported
same,subjects reporting insomnia,"[4]; Part A, 5 mg group (N=6)",4 subjects
same,subjects reporting insomnia,"[4]; Part A, 10 mg group (N=5)",5 subjects
same,number of AEs,[4]; [5],36
same,subjects with AEs,[4]; [5],13 of the 17
same,number of severe adverse events,"[4]; Part B, 10 mg group",5
same,subjects with severe adverse events,"[4]; Part B, 10 mg group",Three
same,dose considered to approach the maximum tolerated dose,"[4]; Part B, elderly subjects",~10 mg
same,number of AEs,[4]; [6],53
same,subjects with AEs,[4]; [6],16 of the 21
same,events of mild insomnia,[4]; Part C,12
same,events of moderate insomnia,[4]; Part C,2
same,number of moderate AEs,[4]; Part C,15
same,number of severe AEs,[4]; Part C,3
same,number of AEs,[4]; [7],90
same,subjects with AEs,[4]; [7],11 of the 12
same,safety and tolerability,"[4]; Part C, 5 mg single doses, fed and fasting states",safe and tolerated
same,maximal tolerated dosage,"[4]; single dose, insomnia limiting",10 mg
